Experimental findings from patent US20050118576A1, “Novel method and assays for yeast-based drug screening” (priority 2000, published 2005) are described below.

This assay has as its system W303-1B/Δydl120w::Kan^R yeast. The assay is described as follows: Growth of mutant yeast in medium supplemented with Fe(II) or Cu(II) ions (OD620). The class given is cell-based, Saccharomyces cerevisiae. The note with it: increasing concentrations of the metal salt, SD+ medium, 19 hours at 30° C., FIG. 2A/2B. On the procedure: For this experiment, W303-1B/Δydl120w::Kan^R and wild-type yeast precultures were grown in YPD medium for 16-24 hours at 30° C. until OD600 0.4-0.6. The precultures were diluted into SD+ medium (6.7 mg/ml yeast nitrogen base w/o amino acids, 2 mg/ml yeast extracts, 0.04 mg/ml adenine sulfate, 0.0625 mg/ml uracil, 0.04 mg/ml L-leucine, 0.03 mg/ml L-histidine-HCl, 0.03 mg/ml L-tryptophane in water) supplemented with variable concentrations of FeSO4 (dissolved in 0.1 N HCl) or CuSO4 (dissolved in water). Aliquots of 100 microliter of yeast suspension were dispensed into single wells of a 96-well microtiter plate. In the experiments with FeSO4 supplementation (FIG. 2A) culture medium for W303-1B/Δydl120w::Kan^R and wild-type yeast contained 4% w/v glucose and all wells were adjusted to the same final concentration of HCl and to DMSO (1% v/v) to prevent the solvent from interfering with the results.
Following 19 hours of culture at 30° C., the growth of yeast was determined by OD620 measurement using a microplate reader.

In the case of `O=S(=O)([O-])[O-].[Cu+2]` [CuSO4], the “growth of yeast as determined by OD620 measurement” value is on record as “clearly inhibit the growth of the frataxin deficient yeast”. The result for `O=S(=O)([O-])[O-].[Fe+2]` [FeSO4] reads “clearly inhibit the growth of the frataxin deficient yeast”.
